Assay results: ChEMBL document CHEMBL1201862, “PubChem BioAssay data set” (2004)
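Grown in 96-well plates, cells were treated for 48 hours with each compound at five concentrations. Insufficient inhibition: endpoint recorded as highest concentration tested. GI50: concentration for 50% inhibition of growth.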 Calls of active or inactive are those of the source. Rule as the data show it: active = GI50 up to about 1.1 µM and inactive = higher.

Assays:
Assay in all cases: DTP human tumour cell line panel, 48 h
[1] = system: MDA-MB-435
[2] = system: SNB-19
[3] = system: SF-539
[4] = system: SNB-75
[5] = system: MOLT-4
[6] = system: SN12C
[7] = system: U-251
[8] = system: MDA-N
[9] = system: HCC 2998
[10] = system: SK-MEL-5
[11] = system: SR
[12] = system: HCT-15
[13] = system: 786-0
[14] = system: ACHN
[15] = system: NCI-H226
[16] = system: Malme-3M
[17] = system: A498
[18] = system: SK-OV-3
[19] = system: EKVX
[20] = system: OVCAR-4

O=C(O)Cn1cc([N+](=O)[O-])c(=O)c2ccccc21
GI50 [1]: > 100 µM (inactive)
GI50 [2]: > 100 µM (inactive)
GI50 [3]: > 100 µM (inactive)
GI50 [4]: > 100 µM (inactive)
GI50 [5]: > 100 µM (inactive)
GI50 [6]: > 100 µM (inactive)
GI50 [7]: > 100 µM (inactive)
GI50 [8]: > 100 µM (inactive)
GI50 [9]: > 100 µM (inactive)
GI50 [10]: > 100 µM (inactive)
GI50 [11]: > 100 µM (inactive)
GI50 [12]: > 100 µM
GI50 [13]: > 100 µM (inactive)
GI50 [14]: > 100 µM (inactive)
GI50 [15]: > 100 µM (inactive)
GI50 [16]: > 100 µM (inactive)
GI50 [17]: > 100 µM (inactive)
GI50 [18]: > 100 µM (inactive)

COc1ccc2c(c1)OCC1(O)Cc3ccccc3OC21 (stereo unspecified)
GI50 [1]: > 100 µM (inactive)
GI50 [3]: > 100 µM (inactive)
GI50 [4]: > 100 µM (inactive)
GI50 [5]: 78.9 µM (inactive)
GI50 [6]: > 100 µM (inactive)
GI50 [7]: > 100 µM (inactive)
GI50 [8]: > 100 µM (inactive)
GI50 [9]: > 100 µM (inactive)
GI50 [10]: > 100 µM (inactive)
GI50 [11]: > 100 µM (inactive)
GI50 [19]: > 100 µM (inactive)
GI50 [12]: > 100 µM
GI50 [13]: > 100 µM (inactive)
GI50 [14]: > 100 µM (inactive)
GI50 [15]: > 100 µM (inactive)
GI50 [16]: > 100 µM (inactive)
GI50 [17]: > 100 µM (inactive)
GI50 [18]: > 100 µM (inactive)
GI50 [20]: 49.3 µM (inactive)

CCC(=O)Nc1ccc(N2C(=O)C(Cl)C2c2ccc(SC)cc2)cc1 (stereo unspecified)
GI50 [1]: 63.7 µM (inactive)
GI50 [2]: > 100 µM (inactive)
GI50 [3]: 26.9 µM (inactive)
GI50 [4]: > 100 µM (inactive)
GI50 [5]: 67.8 µM (inactive)
GI50 [6]: 50.2 µM (inactive)
GI50 [8]: > 100 µM (inactive)
GI50 [9]: 30.9 µM (inactive)
GI50 [10]: 20.7 µM (inactive)
GI50 [11]: 40.6 µM (inactive)
GI50 [19]: 52.7 µM (inactive)
GI50 [12]: 98.2 µM
GI50 [13]: 57.3 µM (inactive)
GI50 [14]: > 100 µM (inactive)
GI50 [15]: 31.5 µM (inactive)
GI50 [16]: > 100 µM (inactive)
GI50 [17]: > 100 µM (inactive)
GI50 [18]: > 100 µM (inactive)
GI50 [20]: 33.5 µM (inactive)

OC[C@H]1CC(c2nn[nH]n2)[C@H](O)[C@@H]1O (stereo partly specified)
GI50 [1]: > 100 µM (inactive)
GI50 [2]: > 100 µM (inactive)
GI50 [3]: > 100 µM (inactive)
GI50 [4]: > 100 µM (inactive)
GI50 [5]: > 100 µM (inactive)
GI50 [6]: > 100 µM (inactive)
GI50 [7]: > 100 µM (inactive)
GI50 [8]: > 100 µM (inactive)
GI50 [9]: > 100 µM (inactive)
GI50 [10]: > 100 µM (inactive)
GI50 [11]: > 100 µM (inactive)
GI50 [12]: > 100 µM
GI50 [13]: > 100 µM (inactive)
GI50 [14]: > 100 µM (inactive)
GI50 [15]: > 100 µM (inactive)
GI50 [16]: > 100 µM (inactive)
GI50 [17]: > 100 µM (inactive)
GI50 [18]: > 100 µM (inactive)
GI50 [20]: > 100 µM (inactive)

N#CCCN(CCC#N)c1ccc(C(=N/c2ccc(F)cc2)/N=N/c2ccc(Cl)cc2)cc1
GI50 [1]: > 100 µM (inactive)
GI50 [2]: > 100 µM (inactive)
GI50 [3]: > 100 µM (inactive)
GI50 [4]: > 100 µM (inactive)
GI50 [5]: > 100 µM (inactive)
GI50 [6]: > 100 µM (inactive)
GI50 [7]: > 100 µM (inactive)
GI50 [8]: > 100 µM (inactive)
GI50 [9]: > 100 µM (inactive)
GI50 [10]: > 100 µM (inactive)
GI50 [11]: > 100 µM (inactive)
GI50 [19]: > 100 µM (inactive)
GI50 [12]: > 100 µM
GI50 [13]: > 100 µM (inactive)
GI50 [14]: > 100 µM (inactive)
GI50 [15]: > 100 µM (inactive)
GI50 [17]: > 100 µM (inactive)
GI50 [18]: > 100 µM (inactive)
GI50 [20]: > 100 µM (inactive)

CC1=NN(C(=O)CC(=O)Nc2ccc(C)cc2)C(=O)C1/N=N/c1ccc(C(=O)O)cc1 (stereo unspecified)
GI50 [1]: > 100 µM (inactive)
GI50 [2]: > 100 µM (inactive)
GI50 [3]: > 100 µM (inactive)
GI50 [4]: > 100 µM (inactive)
GI50 [6]: > 100 µM (inactive)
GI50 [7]: > 100 µM (inactive)
GI50 [8]: > 100 µM (inactive)
GI50 [9]: > 100 µM (inactive)
GI50 [10]: > 100 µM (inactive)
GI50 [11]: 78.5 µM (inactive)
GI50 [19]: > 100 µM (inactive)
GI50 [12]: > 100 µM
GI50 [13]: > 100 µM (inactive)
GI50 [14]: > 100 µM (inactive)
GI50 [16]: > 100 µM (inactive)
GI50 [17]: > 100 µM (inactive)
GI50 [20]: > 100 µM (inactive)
